Measurements taken from ChEMBL document CHEMBL1201862, “PubChem BioAssay data set” (2004).
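Where inhibition never reached the appropriate level, the endpoint shown equals the highest concentration tested. Otherwise, values were interpolated linearly from a five-concentration, 48-hour dose response in 96-well plates. Abbreviation: GI50, concentration required for 50% inhibition of growth.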 Activity calls are given as the source filed them. Cut-off read from the data, not from the text of the source: active = GI50 up to about 1.1 µM and inactive = higher. Bridge positions count the residues as written; N and C are the ends. Square brackets hold non-standard residues; d marks the D form. Peptide text beside a SMILES is read from it. * marks the point of attachment. Cya = N[CH](CS(=O)(=O)O)C(=O)O; X49 = CC(C)CCCCCCCC(O)CC(=O)*; GABA = NCCCC(=O)O

Assays:
Assay in all cases: NCI-60 cell line screen, 48 h
UACC-257 = system: UACC-257
MDA-MB-435 = system: MDA-MB-435
OVCAR-5 = system: OVCAR-5
SN12C = system: SN12C
CCRF-CEM = system: CCRF-CEM
HCT-116 = system: HCT-116
NCI/ADR-RES = system: NCI/ADR-RES
OVCAR-4 = system: OVCAR-4
CAKI-1 = system: CAKI-1
SR = system: SR
786-0 = system: 786-0
MDA-N = system: MDA-N
UACC-62 = system: UACC-62
M14 = system: M14
K562 = system: K562
HL-60 = system: HL-60
MCF7 = system: MCF7
SNB-19 = system: SNB-19
U-251 = system: U-251
BT-549 = system: BT-549
RXF 393 = system: RXF 393
HCC 2998 = system: HCC 2998
NCI-H23 = system: NCI-H23
ACHN = system: ACHN
HT-29 = system: HT-29
SK-OV-3 = system: SK-OV-3
SK-MEL-2 = system: SK-MEL-2
HCT-15 = system: HCT-15
MDA-MB-231 = system: MDA-MB-231
OVCAR-8 = system: OVCAR-8
TK-10 = system: TK-10
SK-MEL-5 = system: SK-MEL-5
SF-539 = system: SF-539
Hs-578T = system: Hs-578T
MOLT-4 = system: MOLT-4
T47D = system: T47D
HOP-92 = system: HOP-92
LOX IMVI = system: LOX IMVI
OVCAR-3 = system: OVCAR-3
NCI-H460 = system: NCI-H460
SK-MEL-28 = system: SK-MEL-28
EKVX = system: EKVX
HOP-62 = system: HOP-62
COLO 205 = system: COLO 205
IGROV-1 = system: IGROV-1
NCI-H226 = system: NCI-H226
A549 = system: A549
RPMI-8226 = system: RPMI-8226
SW-620 = system: SW-620
DU-145 = system: DU-145
SNB-75 = system: SNB-75
A498 = system: A498
KM12 = system: KM12
PC-3 = system: PC-3
SF-295 = system: SF-295
UO-31 = system: UO-31
SF-268 = system: SF-268
NCI-H522 = system: NCI-H522
Malme-3M = system: Malme-3M

Measured: GI50

O=C1Nc2ccc([N+](=O)[O-])cc2/C1=N/NC(=S)Nc1ccccc1
3.03 µM: HCT-15
inactive: UACC-257 12.7 µM | MDA-MB-435 10.1 µM | OVCAR-5 12.2 µM | SN12C 5.9 µM | CCRF-CEM 2.16 µM | HCT-116 4.05 µM | NCI/ADR-RES 2.47 µM | OVCAR-4 7.23 µM | CAKI-1 3.53 µM | SR 5.26 µM | 786-0 5.43 µM | MDA-N 6.35 µM | UACC-62 11 µM | M14 6.01 µM | K562 4.92 µM | HL-60 5.21 µM | MCF7 4.41 µM | SNB-19 5.35 µM | U-251 4.93 µM | BT-549 3.88 µM | RXF 393 11.6 µM | HCC 2998 3.6 µM | NCI-H23 9.33 µM | ACHN 3.23 µM | HT-29 5.37 µM | SK-OV-3 14 µM | SK-MEL-2 11.9 µM | MDA-MB-231 12.3 µM | OVCAR-8 5.16 µM | TK-10 6.11 µM | SK-MEL-5 2.9 µM | SF-539 12 µM | Hs-578T 35.7 µM | MOLT-4 5.98 µM | T47D 4.71 µM | HOP-92 2.92 µM | LOX IMVI 9.46 µM | OVCAR-3 10 µM | NCI-H460 3.61 µM | SK-MEL-28 16.5 µM | EKVX 1.21 µM | HOP-62 8.57 µM | COLO 205 11.7 µM | IGROV-1 1.41 µM | NCI-H226 18.5 µM | A549 5.05 µM | RPMI-8226 15.5 µM | SW-620 8.99 µM | DU-145 11.8 µM | SNB-75 7.57 µM | A498 3.56 µM | KM12 8.41 µM | PC-3 5.5 µM | SF-295 4.34 µM | UO-31 4.79 µM

Oc1c(C2=N[C@H]3CCCC[C@@H]3N2)ccc2ccccc12
> 100 µM: HCT-15
inactive: SF-268 > 100 µM | UACC-257 > 100 µM | MDA-MB-435 > 100 µM | OVCAR-5 > 100 µM | SN12C > 100 µM | CCRF-CEM > 100 µM | HCT-116 > 100 µM | NCI/ADR-RES > 47.6 µM | OVCAR-4 > 100 µM | CAKI-1 > 100 µM | SR > 100 µM | 786-0 > 100 µM | MDA-N > 100 µM | UACC-62 > 100 µM | M14 > 100 µM | K562 > 100 µM | HL-60 > 100 µM | MCF7 > 100 µM | SNB-19 > 40.8 µM | U-251 > 100 µM | BT-549 > 100 µM | HCC 2998 > 100 µM | NCI-H23 > 100 µM | ACHN > 100 µM | HT-29 > 100 µM | SK-OV-3 > 100 µM | SK-MEL-2 > 100 µM | MDA-MB-231 > 100 µM | OVCAR-8 > 100 µM | TK-10 > 100 µM | SK-MEL-5 > 100 µM | SF-539 > 59.6 µM | Hs-578T > 100 µM | MOLT-4 > 100 µM | T47D > 100 µM | HOP-92 > 100 µM | NCI-H522 > 100 µM | LOX IMVI > 100 µM | OVCAR-3 > 100 µM | NCI-H460 > 100 µM | SK-MEL-28 > 100 µM | EKVX > 68.2 µM | HOP-62 > 44.7 µM | COLO 205 > 100 µM | IGROV-1 > 82 µM | NCI-H226 > 100 µM | Malme-3M > 100 µM | RPMI-8226 > 100 µM | SW-620 > 100 µM | DU-145 > 100 µM | SNB-75 > 69.2 µM | A498 > 100 µM | KM12 > 100 µM | PC-3 > 100 µM | UO-31 > 100 µM

CC(C)CCCCCCCC(O)CC(=O)NC(CS(=O)(=O)O)C(=O)NC(CC(C)C)C(=O)NCCCC(=O)NC(Cc1c[nH]cn1)C(=O)NC(C)C(=O)NC1C(=O)NC(C(C)O)C(=O)NC(Cc2c[nH]cn2)C(=O)NC(C)C(=O)NC(C(C)O)C(=O)OC1C (stereo unspecified) (X49-[Cya]L[GABA]HATTHAT; ester 6-C; configuration not given here)
inactive: UACC-257 > 25 µM | MDA-MB-435 > 25 µM | OVCAR-5 > 25 µM | SN12C > 25 µM | CCRF-CEM > 25 µM | HCT-116 > 25 µM | NCI/ADR-RES > 25 µM | OVCAR-4 > 25 µM | CAKI-1 > 25 µM | SR 17.5 µM | 786-0 > 25 µM | MDA-N > 25 µM | UACC-62 > 25 µM | M14 > 25 µM | K562 > 25 µM | HL-60 > 25 µM | MCF7 > 25 µM | SNB-19 > 25 µM | U-251 > 25 µM | BT-549 > 25 µM | HCC 2998 > 25 µM | NCI-H23 > 25 µM | ACHN > 25 µM | HT-29 > 25 µM | SK-OV-3 > 25 µM | SK-MEL-2 > 25 µM | MDA-MB-231 > 25 µM | OVCAR-8 > 25 µM | TK-10 > 25 µM | SK-MEL-5 > 25 µM | SF-539 > 25 µM | Hs-578T > 25 µM | MOLT-4 > 25 µM | T47D > 25 µM | HOP-92 > 25 µM | NCI-H522 > 25 µM | LOX IMVI > 25 µM | OVCAR-3 > 25 µM | NCI-H460 > 25 µM | SK-MEL-28 > 25 µM | EKVX > 25 µM | HOP-62 > 25 µM | COLO 205 > 25 µM | IGROV-1 > 25 µM | NCI-H226 > 25 µM | Malme-3M > 25 µM | A549 > 25 µM | RPMI-8226 > 25 µM | SW-620 > 25 µM | DU-145 > 25 µM | SNB-75 > 25 µM | A498 > 25 µM | KM12 > 25 µM | PC-3 > 25 µM | SF-295 > 25 µM | UO-31 > 25 µM
> 25 µM: HCT-15

COC(=O)c1c(C#C[Si](C)(C)C)c(C#C[Si](C)(C)C)c(C#C[Si](C)(C)C)c(C#C[Si](C)(C)C)c1C(=O)OC
inactive: SF-268 > 100 µM | UACC-257 > 100 µM | MDA-MB-435 > 100 µM | OVCAR-5 > 100 µM | SN12C > 100 µM | CCRF-CEM > 100 µM | HCT-116 > 100 µM | NCI/ADR-RES > 100 µM | OVCAR-4 > 100 µM | CAKI-1 > 100 µM | SR > 100 µM | 786-0 > 100 µM | MDA-N > 100 µM | UACC-62 > 100 µM | M14 > 100 µM | K562 > 100 µM | HL-60 > 100 µM | MCF7 > 100 µM | SNB-19 > 100 µM | U-251 > 100 µM | BT-549 > 100 µM | RXF 393 > 100 µM | HCC 2998 > 100 µM | NCI-H23 > 100 µM | ACHN > 100 µM | HT-29 > 100 µM | SK-OV-3 > 100 µM | SK-MEL-2 > 100 µM | MDA-MB-231 > 100 µM | OVCAR-8 > 100 µM | TK-10 > 100 µM | SK-MEL-5 > 100 µM | SF-539 > 100 µM | Hs-578T > 100 µM | MOLT-4 > 100 µM | T47D > 100 µM | HOP-92 > 100 µM | NCI-H522 > 100 µM | OVCAR-3 > 100 µM | NCI-H460 > 100 µM | SK-MEL-28 > 100 µM | EKVX > 100 µM | COLO 205 > 100 µM | IGROV-1 > 100 µM | NCI-H226 > 100 µM | Malme-3M > 100 µM | A549 > 100 µM | RPMI-8226 > 100 µM | SW-620 > 100 µM | DU-145 > 100 µM | SNB-75 > 100 µM | A498 > 100 µM | KM12 > 100 µM | PC-3 > 100 µM | SF-295 > 100 µM | UO-31 > 100 µM
> 100 µM: HCT-15
